Assay results as given in patent US20110172217A1, “RING-FUSED MORPHOLINE DERIVATIVE HAVING PI3K-INHIBITING ACTIVITY” (Shionogi & Co., Ltd., priority 2008, published 2011).

Tests used:
Assay type in all cases: in vitro ADME
Details in all cases: pooled human liver microsome; one of 5 kinds
CYP3A4 = biological target: T1, CYP3A4 (Homo sapiens, UniProt P08684); assay: CYP inhibition test, hydroxylation of terfenadine
T1 construct: enzyme: pooled human liver microsome 0.2 mg protein/mL; from tissue; host or cells: pooled human liver microsomes
T1 sequence (P08684 whole entry): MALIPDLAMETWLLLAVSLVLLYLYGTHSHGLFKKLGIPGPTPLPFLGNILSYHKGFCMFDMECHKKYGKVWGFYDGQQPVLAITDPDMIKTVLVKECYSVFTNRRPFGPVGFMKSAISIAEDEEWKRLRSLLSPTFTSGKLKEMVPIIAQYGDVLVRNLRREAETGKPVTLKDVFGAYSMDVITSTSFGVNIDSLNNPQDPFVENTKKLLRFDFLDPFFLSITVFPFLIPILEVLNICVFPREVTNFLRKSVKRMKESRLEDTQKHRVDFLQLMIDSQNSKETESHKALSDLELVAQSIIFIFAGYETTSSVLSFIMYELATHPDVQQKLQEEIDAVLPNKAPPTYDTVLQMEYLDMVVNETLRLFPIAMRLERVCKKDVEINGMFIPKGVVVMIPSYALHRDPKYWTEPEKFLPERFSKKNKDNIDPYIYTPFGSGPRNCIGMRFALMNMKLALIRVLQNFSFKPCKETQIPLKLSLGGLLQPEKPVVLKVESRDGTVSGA
From the text: (§1) O-de-ethylation of 7-ethoxyresorufin (CYP1A2), methyl-hydroxylation of tolbutamide (CYP2C9), 4′-hydroxylation of mephenyloin (CYP2C19), O-demethylation of dextromethorphan (CYP2D6), and hydroxylation of terfenadine (CYP3A4), which are typical substrate for metabolic reactions of human main CYP5 molecular species (CYP1A2, 2C9, 2C19, 2D6, and 3A4), were adopted as indexes.
(§2) The reaction conditions are as follows: substrate: 0.5 μmol/L of ethoxyresorufin (CYP1A2), 100 μmol/L of tolbutamide (CYP2C9), 50 μmol/L of S-mephenyloin (CYP2C19), […] of dextromethorphan (CYP2D6), and 1 μmol/L of terfenadine (CYP3A4); reaction time; 15 minutes; reaction temperature: 37° C.; enzyme: pooled human liver microsome 0.2 mg protein/mL; test drug concentration: 1, 5, 10, and 20 μmol/L (4 points).
(§3) In a 96-well plate, as a reaction solution, five kinds of substrates, a human liver microsome, and a test drug were added to 50 mmol/L Hepes buffer solution in the aforementioned ratio. A coenzyme NADPH was added to start a metabolic reaction, which is an index. After reacting at 37° C. for 15 minutes, a solution of methanol/acetonitrile (1/1 (v/v)) was added to quench the reaction. After centrifugation at 3000 rpm for 15 minutes, resorufin (CYP1A2 metabolite) in the supernatant was quantitated with a fluorescence multilabel counter, and hydroxylated tolbutamide (CYP2C9 metabolite), 4′-hydroxylated mephenyloin (CYP2C19 metabolite), […], terfenadine in alcohol form (CYP3A4 metabolite) were quantitated with LC/MS/MS.
(§4) The case wherein only DMSO (a solvent which dissolved a drug) was added to a reaction system was defined as a control (100%). When a test drug solution was added, the remaining activity (%) at each concentration was calculated, and then IC50 was calculated with a concentration and an inhibition ratio by an inverse estimation using a logistic model.

CYP1A2 = biological target: T2, CYP1A2 (Homo sapiens, UniProt P05177); assay: CYP inhibition test, O-de-ethylation of 7-ethoxyresorufin
T2 construct: enzyme: pooled human liver microsome 0.2 mg protein/mL; from tissue; host or cells: pooled human liver microsomes
T2 sequence (P05177 1-516): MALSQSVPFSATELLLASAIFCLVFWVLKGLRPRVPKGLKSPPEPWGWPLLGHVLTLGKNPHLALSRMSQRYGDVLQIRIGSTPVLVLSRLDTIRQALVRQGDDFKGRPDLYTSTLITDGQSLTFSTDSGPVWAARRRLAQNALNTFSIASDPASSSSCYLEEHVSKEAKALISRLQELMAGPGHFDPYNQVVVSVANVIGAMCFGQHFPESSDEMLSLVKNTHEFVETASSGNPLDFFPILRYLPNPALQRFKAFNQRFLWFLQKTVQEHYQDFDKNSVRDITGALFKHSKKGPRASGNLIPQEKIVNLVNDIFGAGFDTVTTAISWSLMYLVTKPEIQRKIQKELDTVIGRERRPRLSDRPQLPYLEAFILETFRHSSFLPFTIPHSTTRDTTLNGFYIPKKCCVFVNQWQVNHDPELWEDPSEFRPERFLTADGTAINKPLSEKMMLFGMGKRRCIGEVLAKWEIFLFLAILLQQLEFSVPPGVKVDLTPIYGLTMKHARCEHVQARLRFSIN
From the text: as §1, §2, §3, §4

CYP2C9 = biological target: T3, CYP2C9 (Homo sapiens, UniProt P11712); assay: CYP inhibition test, methyl-hydroxylation of tolbutamide
T3 construct: enzyme: pooled human liver microsome 0.2 mg protein/mL; from tissue; host or cells: pooled human liver microsomes
T3 sequence (P11712 whole entry): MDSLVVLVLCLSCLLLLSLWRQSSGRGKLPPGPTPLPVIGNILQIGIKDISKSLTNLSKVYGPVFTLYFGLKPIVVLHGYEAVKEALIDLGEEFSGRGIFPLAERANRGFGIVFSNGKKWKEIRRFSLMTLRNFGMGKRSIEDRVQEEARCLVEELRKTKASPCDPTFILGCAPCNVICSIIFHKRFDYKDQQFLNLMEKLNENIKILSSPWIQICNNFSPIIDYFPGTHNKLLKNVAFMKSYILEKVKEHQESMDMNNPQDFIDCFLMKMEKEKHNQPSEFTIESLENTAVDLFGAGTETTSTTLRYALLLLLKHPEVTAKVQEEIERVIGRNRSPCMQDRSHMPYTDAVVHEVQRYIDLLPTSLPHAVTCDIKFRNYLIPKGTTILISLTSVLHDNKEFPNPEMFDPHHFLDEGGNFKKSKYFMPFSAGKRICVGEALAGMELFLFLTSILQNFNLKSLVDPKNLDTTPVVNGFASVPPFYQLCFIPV
From the text: as §1, §2, §3, §4

Measured: IC50

O=C(O)COc1cccc(Nc2ccc3c(n2)N(C(=O)Nc2ccccc2)CCO3)c1 [Compound I-240]
> 20 µM: all assays above
